The results in this text go back to EP1746090A1, “Sustituted pyrazoline compounds, having predetermined stereochemistry, for reducing triglycerides in blood” (Laboratorios del Dr. Esteve S.A., priority 2005, dated 2007).

The subject of this test is male mice B6 Lep ob/ob. Description: In-vivo testing for regulation of triglycerides in blood plasma (obese mice on high fat diet). Particulars: obese mice fed with high fat diet for 7 weeks; 30 mg/kg/day, p.o., 14 days; whole blood, test strips "Lipid panel". The text has this:
This effect is probed in obese mice fed with high fat diet. In the following paragraphs the method of this study is described.
The study is done using six weeks old male mice B6 Lep ob/ob, obtained from Charles River (France). Mice are divided in 3 groups: I (control), II (vehicle), III (example 0).
The animals of the group I receive the standard diet (D-12450B, Research Diets, NJ, USA).
The animals of the groups II and III are fed with a High Fat Diet (D-12492, Research Diets, NJ, USA), in both cases for 7 weeks (References 1 and 2).
The animals of the groups III are fed with a High Fat Diet (D-12492, Research Diets, NJ, USA), in both cases for 7 weeks (References 1 and 2).
At the end of the feeding period of 7 weeks, the treatment period (14 days) is started: Group II mice receive the vehicle (10 ml/kg/day, po, of the aqueous solution of acacia gum, 5% W/V). Group III is administered with 30 mg/kg/day, p.o., of the inventive compound (R)-5-(4-chlorophenyl)-1-(2,4-dichlorophenyl)-4,5-dihydro-pyrazole-3-carboxylic acid according to Example 0. […] The three groups of mice have the same diet than in the previous period.
At the end of the 14 days period of treatment, the blood levels of triglicerides of the animals are determined. […]

“(S)-5-(4-chlorophenyl)-1-(2,4-dichlorophenyl)-4,5-dihydro-pyrazole-3-carboxylic acid [example 0]”: the “blood levels of triglicerides” value is on record as “inhibitor of high blood levels of triglicerides”.
